Source: publication PMC6615261, “Repurposing Azithromycin and Rifampicin Against Gram-Negative Pathogens by Combination With Peptidomimetics” (Frontiers in Cellular and Infection Microbiology, 2019)
Like-named read-outs stand apart in the source and are kept apart here.

Tests used:
P. aeruginosa ATCC 27853 [1] = experiment: MIC by broth microdilution; format: cell-based, Pseudomonas aeruginosa
Procedure: (§1) Minimal inhibitory concentrations (MICs) of peptidomimetics, antibiotics and their combinations were determined by broth microdilution according to the Clinical Laboratory Standards Institute performance standards (Clinical and Laboratory Standards Institute, [2013]). […] Since rifampicin and azithromycin mainly are used to treat infections with Gram-positive pathogens only CLSI clinical breakpoints were available for such bacteria. […] Potentiation of additional antibiotics by peptidomimetics was determined by using commercial 96-well plates containing varied concentrations of standard antibiotics (COMPAN1F; Trek Diagnostic Systems Inc.). The peptidomimetics were added immediately prior to inoculation with pathogen, and then MICs were determined as above. The MICs of peptidomimetic/antibiotic combinations were determined according to the method above, and the concentration ratios were selected based upon checkerboard results with 2:1 and 1:4 ratio of peptidomimetic with rifampicin or azithromycin, respectively. Minimal bactericidal concentrations (MBCs) were determined by using growth-curve assay plates. MIC plates were prepared as above, and then the plates were incubated at 37°C with continuous shaking. Growth was recorded at 10 min intervals as optical density (OD) at 600 nm during 24 h. At 24 h, for wells without growth, a sample was diluted 10-fold in sterile saline (0.9% sodium chloride) and plated onto MHA, following CLSI guidelines (Clinical and Laboratory Standards Institute, [1999]).

E. coli ST131 [2] = experiment: MIC by broth microdilution; format: cell-based, Escherichia coli
Procedure: as §1

K. pneumoniae ST258 [3] = experiment: Screening of peptidomimetic-antibiotic combinations (growth / growth inhibition); format: cell-based, Klebsiella pneumoniae; parameters: key to Growth in combination with RIF / Growth in combination with AZM: Growth (+); growth inhibition (–)
Procedure: as §1

[4] = MTS/PMS cell viability assay; format: cell-based, mouse; conditions: mouse, NIH 3T3 fibroblasts, 1 h exposure, read-out: Cytotoxicity NIH 3T3 EC50 ± SD
Procedure: (§2) NIH 3T3 and HepG2 cells (both from ATCC, Manassas, VA, USA) were cultured in flat-bottomed 96-well MicroWell™ plates (NUNC, Roskilde, Denmark) at seeding densities of ~23,000 and ~22,000 cells/well, respectively, and then cultured for 22–24 h under standard culturing conditions (37°C, 5% CO2, humidified air) to reach 80–90% confluence. NIH 3T3 were cultured in Dulbecco's modified Eagle's medium (DMEM) supplemented with 10% (v/v) newborn-calf serum (NCS) (Gibco, Paisly, UK), while HepG2 were cultured in Eagle's minimum essential medium (EMEM) supplemented with 10% (v/v) fetal bovine serum (FBS, Gibco, Paisly, UK), sodium pyruvate (1 mM), and non-essential amino acids (1%, v/v). Both culturing media were further supplemented with penicillin (100 U/mL), streptomycin (100 μg/mL), and L-glutamine (2 mM).
(§3) Effect on cell viability was determined in NIH 3T3 fibroblasts and HepG2 hepatocytes by using the MTS/PMS assay measuring metabolic activity. Briefly, the adhered cells were washed with 37°C Hanks' balanced salt solution (HBSS from Sigma-Aldrich, St. Louis, MO, USA), containing 10 mM HEPES (AppliChem, Darmstadt, Germany), and adjusted to pH 7.4, and were then exposed for 1 h to 100 μL of test compound(s) dissolved in the appropriate culturing medium without serum for each cell line. After exposure the cells were washed with HBSS containing 10 mM HEPES (pH 7.4) and 100 μL of an MTS/PMS solution, consisting of 240 μg/mL MTS (Promega, Madison, WI, USA) and 2.4 μg/mL PMS (SigmaAldrich, Buchs, Switzerland) in HBSS, was added to the cells, which then were incubated for 1 h at 37°C with horizontal shaking under light protection. Absorbance was measured at 492 nm by using a POLARstar OPTIMA plate reader (BMG Labtech, Offenburg, Germany). The relative viability was calculated according to Equation (1) with absorbance values obtained after incubation of cells with test compound; incubation with SDS (0.2%, w/v in medium) defined 100% cell death (Abspos), while the absorbance of cells incubated with medium defined 0% cell death (Absneg).
(§4) (1) Relative viability(%)=(Abssample-Abspos)/(Absneg-Abspos)×100%
(§5) EC50 values were calculated by using GraphPad Prism 7 (GraphPad Software, La Jolla, CA, USA) via fitting of the relative cell viability to the concentration of the test compound by using Equation (2):
(§6) (2) Relative viability(%)= Top-Bottom/1+10^(LogIC50-Log[peptidomimetic]) ×Hill slope
(§7) With top and bottom representing the mean highest and lowest observed values, respectively. The Hill slope represents a factor for the steepness of the linear part of the curve. In order to prevent erroneous calculation, the top and bottom values were constrained to 100 and 0%, respectively. Data were collected from technical triplicates. The selectivity index was calculated as the average effect on cell viability (EC50 values for HepG2 and NIH 3T3 cells) divided by the MIC.

[5] = MTS/PMS cell viability assay; format: cell-based; conditions: human, HepG2 hepatocytes, 1 h exposure, read-out: Cytotoxicity HepG2 EC50 ± SD
Procedure: as §2, §3, §4, §5, §6, §7

P. aeruginosa ATCC 27853 [6] = test system: P. aeruginosa ATCC 27853
Procedure: (§8) The potential synergistic effects in peptidomimetic-antibiotic combinations were assessed by using a two-dimensional checkerboard assay (Garcia, [2010]). Briefly, twofold dilutions of peptide and antibiotic were prepared in MBH II media along the X- and Y-axis, respectively, in 96-well plates. The inoculum was added to the plates, and subsequently these were incubated for 18–20 h. All steps for inoculum preparation and broth microdilution were in accordance with the CLSI guidelines (Clinical and Laboratory Standards Institute, [2013]). The fractional inhibitory concentration index (FICI) was calculated as [MICA(A+B)/MICA(alone)] + [MICB(A+B)/MICB(alone)], where MICA(A+B) represents the MIC of antibiotic (A) in combination with peptidomimetic (B), while MICB(A+B) represents the MIC of peptidomimetic (B) in combination with antibiotic (A). MICA(alone) and MICB(alone) represent the MIC of each compound individually. FICI values of ≤0.5 were interpreted as synergy.

E. coli ST131 [7] = test system: E. coli ST131
Procedure: as §8

K. pneumoniae ST258 [8] = test system: K. pneumoniae ST258
Procedure: as §8

NIH 3T3 and HepG2 cells = experiment: Effect on viability of mammalian cells (both cell lines); format: cell-based, mouse and human
Procedure: as §2, §3, §4, §5, §6
With top and bottom representing the mean highest and lowest observed values, respectively. The Hill slope represents a factor for the steepness of the linear part of the curve. […] The selectivity index was calculated as the average effect on cell viability (EC50 values for HepG2 and NIH 3T3 cells) divided by the MIC.

K. pneumoniae ST258 [9] = experiment: MIC by broth microdilution; format: cell-based, Klebsiella pneumoniae
Procedure: as §1

MDR E. coli ST131 = experiment: Screening of peptidomimetic-antibiotic combinations (growth / growth inhibition); format: cell-based, Escherichia coli; parameters: key to Growth in combination with RIF / Growth in combination with AZM: Growth (+); growth inhibition (–)
Procedure: as §1

[10] = average of EC50 (HepG2, NIH 3T3) divided by MIC
[11] = 0.5 μM peptidomimetic + 0.5 μg/mL rifampicin
[12] = peptidomimetic 0.5 μM + azithromycin 1 μg/mL
[13] = peptidomimetic 0.5 μM + rifampicin 0.5 μg/mL
[14] = MIC of azithromycin combined with the labelled peptidomimetic
[15] = MIC of rifampicin combined with the labelled peptidomimetic

MIC P. aeruginosa ATCC 27853 (P. aeruginosa ATCC 27853 [1]; peptidomimetic alone): 2 µM | MIC E. coli ST131 (E. coli ST131 [2]; peptidomimetic alone): 1 µM | Antibiotic MIC in combination (AZM) (P. aeruginosa ATCC 27853 [6]; P. aeruginosa ATCC 27853, MIC of azithromycin combined with the labelled peptidomimetic): 0.5 µg/mL | Antibiotic MIC in combination (RIF) (P. aeruginosa ATCC 27853 [6]; P. aeruginosa ATCC 27853, MIC of rifampicin combined with the labelled peptidomimetic): 0.06 µg/mL | Peptidomimetic MIC alone (P. aeruginosa ATCC 27853 [6]; P. aeruginosa ATCC 27853, checkerboard): 2 µM | Peptidomimetic MIC in combination (P. aeruginosa ATCC 27853 [6]; P. aeruginosa ATCC 27853, combined with AZM): 1 µM | Peptidomimetic MIC in combination (P. aeruginosa ATCC 27853 [6]; P. aeruginosa ATCC 27853, combined with RIF): 0.5 µM | Reduction of the MIC of azithromycin (P. aeruginosa ATCC 27853 [6]; P. aeruginosa, sub-MIC concentrations of peptidomimetic): 32- to 512 fold | Antibiotic MIC in combination (AZM) (E. coli ST131 [7]; [14]): 1 µg/mL | Antibiotic MIC in combination (RIF) (E. coli ST131 [7]; [15]): 0.5 µg/mL | Peptidomimetic MIC alone (E. coli ST131 [7]; checkerboard): 1 µM | Peptidomimetic MIC in combination (E. coli ST131 [7]; combined with AZM): 0.25 µM | Peptidomimetic MIC in combination (E. coli ST131 [7]; combined with RIF): 0.25 µM | Antibiotic MIC in combination (CLI) (K. pneumoniae ST258 [8]; MIC of CLI combined with the labelled peptidomimetic): 4 µg/mL | Antibiotic MIC in combination (AZM) (K. pneumoniae ST258 [8]; [14]): 8 µg/mL | Antibiotic MIC in combination (RIF) (K. pneumoniae ST258 [8]; [15]): 0.06 µg/mL | Peptidomimetic MIC alone (K. pneumoniae ST258 [8]; checkerboard): 8 µM | Peptidomimetic MIC in combination (K. pneumoniae ST258 [8]; combined with AZM): 0.5 µM | Peptidomimetic MIC in combination (K. pneumoniae ST258 [8]; combined with CLI): 0.5 µM | Peptidomimetic MIC in combination (K. pneumoniae ST258 [8]; combined with RIF): 0.5 µM | MIC K. pneumoniae ST258 (K. pneumoniae ST258 [9]; peptidomimetic alone): 8 µM
Structure (SMILES): C[C@@H](c1ccccc1)N(CCC(N)=O)C(=O)[C@H](CCCCNC(=N)N)NC(=O)CCN(C(=O)[C@H](CCCCN)NC(=O)CCN(C(=O)[C@H](CCCCNC(=N)N)NC(=O)CCN(C(=O)[C@H](CCCCN)NC(=O)CCN(C(=O)[C@H](CCCCNC(=N)N)NC(=O)CCN(C(=O)[C@H](CCCCN)NC(=O)CNCCCNCCCCNCCCN)[C@@H](C)c1ccccc1)[C@@H](C)c1ccccc1)[C@@H](C)c1ccccc1)[C@@H](C)c1ccccc1)[C@@H](C)c1ccccc1 [Peptidomimetic 26, Spermine-(Lys-βNspe-hArg-βNspe)3-NH2]
Selectivity Index (SI) P. aeruginosa ATCC 27853 (P. aeruginosa ATCC 27853 [1]; [10]): (28) | Selectivity Index (SI) E. coli ST131 (E. coli ST131 [2]; [10]): (56) | Screening result with rifampicin (K. pneumoniae ST258 [3]; [11]): inhibit growth | Growth in combination with AZM (K. pneumoniae ST258 [3]; [12]): + | Growth in combination with RIF (K. pneumoniae ST258 [3]; [13]): – | EC50 at 1 h [4]: 53.2 ± 2.94 µM | EC50 at 1 h [5]: 59.6 ± 0.71 µM | EC50 (NIH 3T3 and HepG2 cells): 50 to 60 µM | Selectivity Index (SI) K. pneumoniae ST258 (K. pneumoniae ST258 [9]; [10]): (7) | Screening result with rifampicin (MDR E. coli ST131; [11]): inhibit growth | Growth in combination with AZM (MDR E. coli ST131; [12]): – | Growth in combination with RIF (MDR E. coli ST131; [13]): –
